This note sets out measurements from ChEMBL document CHEMBL5584248, “Synthesis and biological characterization of an orally bioavailable lactate dehydrogenase-A inhibitor against pancreatic cancer” (Eur J Med Chem, 2024).

One may read the IC50 as the concentration needed to halve the response being measured.

Some results are limits rather than exact numbers.

Assay [1] deals with L-lactate dehydrogenase A chain (Homo sapiens, UniProt P00338). As to the kind of experiment: Inhibition of human LDH-A incubated for 10 mins in presence of […] by fluorescence based reader assay.
Assay [2] deals with L-lactate dehydrogenase B chain (Homo sapiens, UniProt P07195). As to the kind of experiment: Inhibition of human LDH-B incubated for 10 mins in presence of […] by fluorescence based reader assay.
L-lactate dehydrogenase B chain, sequence (P07195 whole entry): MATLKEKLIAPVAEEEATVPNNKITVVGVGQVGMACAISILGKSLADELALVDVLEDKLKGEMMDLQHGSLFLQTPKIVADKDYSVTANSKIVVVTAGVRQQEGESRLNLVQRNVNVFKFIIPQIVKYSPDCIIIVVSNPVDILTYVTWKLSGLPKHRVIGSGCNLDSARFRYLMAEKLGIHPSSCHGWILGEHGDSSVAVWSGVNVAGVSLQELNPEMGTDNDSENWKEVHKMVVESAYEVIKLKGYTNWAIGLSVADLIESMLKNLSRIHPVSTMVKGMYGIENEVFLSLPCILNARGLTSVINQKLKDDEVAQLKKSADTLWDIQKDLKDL

In the case of `COC(=O)C(CC(=O)Nc1ccc(C(=O)c2nccn2C)cc1)c1ccc(OC)cc1` (stereo not drawn), the IC50 in assay [1] was found to be 50 µM.
Same read-out and setting: then `COC(=O)C(CC(=O)Nc1ccc(C(=O)c2ccccc2)cc1)c1ccc(C(F)(F)F)cc1` (stereo not drawn), with 15.7 µM.
For the molecule `O=C(O)CC(NC(=O)CCc1ccccc1)c1cccc(Cl)c1` (stereo not drawn), the IC50 in assay [2] and in assay [1] was > 100 µM in each case.
With `COc1ccc(C(CC(=O)Nc2ccc(C(=O)c3nccn3C)cc2)C(=O)O)cc1` (stereo not drawn), the IC50 in assay [1] was found to be 54.5 µM.
Consider `COC(=O)C(CC(=O)Nc1ccc(N2CCOCC2)c(F)c1)c1ccc(C(F)(F)F)cc1` (stereo not drawn), for which the IC50 in assay [1] stood at 71.5 µM.
In the case of `COC(=O)C(CC(=O)Nc1ccc(Cl)nn1)c1ccc(C(F)(F)F)cc1` (stereo not drawn), the concentration for half-maximal inhibition (IC50) in assay [2] and in assay [1] was > 100 µM in each case.
`O=C(O)CC(NC(=O)c1ccccc1Cl)c1cccc(Cl)c1` (stereo not drawn): the IC50 in assay [2] and in assay [1] was > 100 µM throughout.
Turning to `O=C(CC(C(=O)O)c1ccc(C(F)(F)F)cc1)Nc1ccc(N2CCOCC2)c(Cl)c1` (stereo not drawn), the 50% inhibitory concentration (IC50) in assay [2] and in assay [1] was > 100 µM in each case.
For the molecule `Cn1ccnc1C(=O)c1ccc(NC(=O)CC(C(=O)O)c2csc(-c3ccccc3)n2)cc1` (stereo not drawn), the IC50 in assay [1] amounted to 29.9 µM.
